In patent US11999676B2, “Vesicular monoamine transporter-2 ligands and their use in the treatment of psychostimulant abuse” (priority 2016, dated 2024):
Read-outs that look alike come from different tables or passages of the source.

Assays:
[1] = Microsomal stability assay, human liver microsomes; settings: for CLint scaled at 0.08 µM / half-life at 0.08 µM: both, human, pooled liver microsomes; for CLint scaled at 0.08 µM: pH 7.4, Microsomal stability assays: Clearance; for half-life at 0.08 µM: pH 7.4, Microsomal stability assays: Half-life
Experimental: Each plate holds triplicate samples of two controls (0.4 mM) and up to 14 compounds (0.08 mM) in rat and human liver microsomes. Aliquots of each well of the plate (175 μl of each well) were transferred from the master plate into 5 assay plates. For 0-hr time point, pre-cooled (4° C.) internal standard (437.5 μL, 2 μM caffeine in methanol) was added to the first plate before the reaction starts. NADPH regenerating system solution A (6.05 ml, Fisher Scientific, #NC9255727) was combined with NADPH regenerating system solution B (1.21 ml, Fisher Scientific, #NC9016235) in potassium phosphate buffer (15.8 ml, 0.1 M, pH 7.4, 37° C.). The resulting NADPH solution (43.8 μl) was added to each well of all the 96-well assay plates and mixed with pipette briefly making the final protein and compound concentrations respectively: 0.5 mg/ml, 0.08 μM (0.4 μM for controls). Plates were sealed, and all plates except the 0-hr plate were incubated at 37° C., shaken at a speed of 60 rpm. A single assay plate was tested at each time point: 0.5 hr, 1 hr, 2 hr, and 4 hr. At each time point, 437.5 μL of pre-cooled internal standard was added each well of the plate to quench the reaction. […] 120 μl supernatant was transferred to a 96-well plate, centrifuged again and analyzed by UPLC-MS (Waters Inc., Milford, MA). The compounds and internal standard were detected by selected ion recording (SIR).
The amount of material was measured as a ratio of peak area to the internal standard and graphed. Using the slope from the initial linear portion of this curve, the degradation rate constant is calculated using equation [1].

[2] = molecular target: VMAT2 (Rattus norvegicus (Rat), UniProt Q01827); assay: [3H]Dopamine ([3H]DA) uptake assay, vesicular preparation; type: biochemical
[3] = Microsomal stability assay, rat liver microsomes; settings: for CLint scaled at 0.08 µM / half-life at 0.08 µM: female, Sprague-Dawley, rat, liver microsomes; for CLint scaled at 0.08 µM: pH 7.4, Microsomal stability assays: Clearance; for half-life at 0.08 µM: pH 7.4, Microsomal stability assays: Half-life
[4] = [3H]DA uptake (Ki) VMAT2, rat striatal synaptic vesicles
[5] = [3H]DA uptake, rat, read-out: VMAT2 (rat) Inhibition: Mean Ki ± Standard Deviation

| SMILES | CLint scaled at 0.08 µM [1] | half-life at 0.08 µM [1] | CLint scaled at 0.08 µM [3] | half-life at 0.08 µM [3] | other results |
| --- | --- | --- | --- | --- | --- |
| CCC(Cc1ccccc1)NCCCc1ccc(O)cc1 (centres unmarked) [Compound 208] | > 400 mL/min/kg | < 6 min | – | – | – |
| C[C@H](Cc1ccc(Br)cc1)NCCCc1ccccc1 [Compound 12] | – | – | – | – | Ki [2, 4]: 6 ± 1 nM |
| CC(Cc1ccc(F)cc1)NCCCc1ccc(F)cc1 (centres unmarked) [Compound 191] | – | – | 195 mL/min/kg | 12 min | – |
| CC(Cc1ccccc1)N(CCCc1ccc(O)cc1)CCCc1ccc(O)cc1 (centres unmarked) [Compound 225] | – | – | – | – | Ki [2, 5]: 4.99 ± 1.19 nM |
| CC(Cc1ccncc1)NCCCc1ccc(Br)cc1 (centres unmarked) [Compound 169] | – | – | 200 mL/min/kg | 12 min | – |
| CC(Cc1ccc([N+](=O)[O-])cc1)NCCCc1ccccc1 (centres unmarked) [Compound 116] | – | – | > 400 mL/min/kg | < 6 min | – |
| COc1ccc(CCC(C)NC(C)Cc2ccccc2)cc1 (centres unmarked) [Compound 198] | – | – | 414 mL/min/kg | – | Ki [2, 5]: 152 ± 25.6 nM; Microsomal stability assays: Half-life [3]: 6 min |
| CC(Cc1ccc(F)cc1)NCCCc1c[nH]c2ccccc12 (centres unmarked) [Compound 92] | 112 mL/min/kg | 12 min | – | – | – |
| COc1ccc(C[C@@H](C)NCCCc2ccccc2)cc1 [Compound 27] | – | – | – | – | Ki [2, 4]: 45 ± 4 nM |
| CC(Cc1ccc(NC=O)cc1)NCCCc1ccccc1 (centres unmarked) [Compound 78] | – | – | 167 mL/min/kg | 18 min | – |
| CC(Cc1ccc(N)cc1)NCCCc1ccncc1 (centres unmarked) [Compound 103] | – | – | – | – | Ki [2, 5]: 378 ± 30 nM |
| CC(Cc1ccccc1)NCCCc1ccc(-c2cccnc2)cc1 (centres unmarked) [Compound 211] | > 400 mL/min/kg | < 6 min | – | – | – |
| CC(Cc1ccc(F)cc1)NCCCc1ccc(N)cc1 (centres unmarked) [Compound 95] | 12.9 mL/min/kg | 96 min | – | – | – |
| CC(Cc1ccc(F)cc1)NCCCc1ccc([N+](=O)[O-])cc1 (centres unmarked) [Compound 161] | < 5.2 mL/min/kg | > 240 min | – | – | – |
| CC(C)C(Cc1ccc(F)cc1)NCCCc1ccccc1 (centres unmarked) [Compound 136] | – | – | – | – | Ki [2, 5]: 386 ± 66.4 nM |
| CC(Cc1ccccc1)NCCCc1ccc(Br)cc1 (centres unmarked) [Compound 219] | – | – | > 400 mL/min/kg | < 6 min | – |
| CC(Cc1ccc(F)cc1)NCCCn1cccn1 (centres unmarked) [Compound 133] | < 5.2 mL/min/kg | > 240 min | – | – | – |
| CC(C)C(Cc1ccc(F)cc1)NCCCc1ccc(Br)cc1 (centres unmarked) [Compound 140] | 14.4 mL/min/kg | 84 min | – | – | Ki [2, 5]: 132 ± 29.5 nM |
| C[C@@H](Cc1ccc(Br)cc1)NCCCc1ccccc1 [Compound 13] | – | – | – | – | Ki [2, 4]: 32 ± 4 nM |
| CC(Cc1ccccc1)NCCCc1ccc(O)cc1 (centres unmarked) [Compound 224] | – | – | > 400 mL/min/kg | < 6 min | – |
| CC(Cc1ccncc1)NCCCc1ccc(O)cc1 (centres unmarked) [Compound 179] | < 5.2 mL/min/kg | > 240 min | – | – | – |
| CC(Cc1ccc(F)cc1)NCCCc1ccc(NC=O)cc1 (centres unmarked) [Compound 71] | – | – | 97.2 mL/min/kg | 30 min | – |
| CC(Cc1ccc(F)cc1)NCCCc1ccc(N(C)C)cc1 (centres unmarked) [Compound 157] | – | – | > 400 mL/min/kg | < 6 min | – |
| CC(Cc1ccc(F)c(F)c1)NCCCc1ccncc1 (centres unmarked) [Compound 97] | 11.9 mL/min/kg | 102 min | – | – | – |
| CC(Cc1ccccc1)NCCCc1ccncc1 (centres unmarked) [Compound 205] | – | – | 90.6 mL/min/kg | 30 min | – |

| SMILES | CLint scaled at 0.08 µM [1] | half-life at 0.08 µM [1] | CLint scaled at 0.08 µM [3] | half-life at 0.08 µM [3] | other results |
| --- | --- | --- | --- | --- | --- |
| CC(Cc1ccc(Cl)cc1)NCCCc1ccc(N)cc1 (centres unmarked) [Compound 63] | 11.6 mL/min/kg | 108 min | – | – | – |
| CS(=O)(=O)c1ccc(CCCNC(CF)Cc2ccc(F)cc2)cc1 (centres unmarked) [Compound 137] | – | – | – | – | Ki [2, 5]: 182 ± 56.7 nM |
| FCC(Cc1ccc(Br)cc1)NCCCc1ccc(F)cc1 (centres unmarked) [Compound 86] | 18.1 mL/min/kg | 66 min | – | – | – |
| CC(C)C(Cc1ccc(F)cc1)NCCCc1ccc(Br)cc1 (centres unmarked) [Compound 141] | – | – | > 450 mL/min/kg | < 6 min | – |
| CC(Cc1ccc(F)cc1)NCCCc1ccc(S(C)(=O)=O)cc1 (centres unmarked) [Compound 139] | – | – | < 7 mL/min/kg | > 240 min | – |
| Nc1ccc(CCCNC(CF)Cc2ccc(F)cc2)cc1 (centres unmarked) [Compound 108] | 9.6 mL/min/kg | 132 min | – | – | – |
| CC(Cc1ccc([N+](=O)[O-])cc1)NCCCc1ccc(Br)cc1 (centres unmarked) [Compound 122] | – | – | > 400 mL/min/kg | < 6 min | – |
| CC(Cc1ccc(F)cc1)NCCCc1ccc(-c2ccnn2C)cc1 (centres unmarked) [Compound 167] | – | – | 111 mL/min/kg | 24 min | – |
| CC(Cc1ccc([N+](=O)[O-])cc1)NCCCc1ccncc1 (centres unmarked) [Compound 113] | 6.3 mL/min/kg | 198 min | – | – | Ki [2, 5]: 157 ± 72.5 nM |
| CC(Cc1ccc(F)cc1)NCCCc1ccc(I)cc1 (centres unmarked) [Compound 183] | < 5.2 mL/min/kg | > 240 min | – | – | – |
| CC(Cc1ccc(F)c(F)c1)NCCCc1ccc(N)cc1 (centres unmarked) [Compound 61] | 9.6 mL/min/kg | 132 min | – | – | – |
| CC(Cc1ccc(F)cc1)NCCCc1ccc([S+](C)[O-])cc1 (centres unmarked) [Compound 144] | – | – | – | – | Ki [2, 5]: 178 ± 78.9 nM |
| CC(Cc1ccc(F)cc1)NCCCn1cccn1 (centres unmarked) [Compound 132] | – | – | 180 mL/min/kg | 18 min | Ki [2, 5]: 709 ± 172 nM |
| COc1ccc(CCCNC(C)Cc2ccncc2)cc1 (centres unmarked) [Compound 173] | – | – | 126 mL/min/kg | 24 min | – |
| Nc1ccc(CCCNC(CF)Cc2ccc(F)cc2)cc1 (centres unmarked) [Compound 107] | – | – | 82.2 mL/min/kg | 36 min | Ki [2, 5]: 105 ± 0.189 nM |
| CC(Cc1ccccc1)NCCCc1ccc(C(F)(F)F)cc1 (centres unmarked) [Compound 195] | < 5.2 mL/min/kg | > 240 min | – | – | – |
| COc1ccc(CCC(C)NC(C)Cc2ccccc2)cc1 (centres unmarked) [Compound 199] | > 400 mL/min/kg | < 6 min | – | – | – |
| COc1ccc(C[C@H](C)NCCCc2ccccc2)cc1 [Compound 28] | – | – | – | – | Ki [2, 4]: 20 ± 1 nM |
| OCC(Cc1ccc(F)cc1)NCCCc1ccncc1 (centres unmarked) [Compound 128] | – | – | < 10 mL/min/kg | > 240 min | – |
| CC(Cc1ccc([N+](=O)[O-])cc1)NCCCc1ccncc1 (centres unmarked) [Compound 114] | – | – | 95.9 mL/min/kg | 30 min | – |
| CC(Cc1ccc(F)cc1)NCCCn1ccnc1 (centres unmarked) [Compound 135] | – | – | < 7 mL/min/kg | > 240 min | – |
| CC(Cc1ccc(F)cc1)NCCCc1ccccc1 (centres unmarked) [Compound 127] | – | – | > 400 mL/min/kg | < 6 min | – |
| CC(C)Nc1ccc(CCCNC(C)Cc2ccc(F)cc2)cc1 (centres unmarked) [Compound 65] | – | – | – | – | Ki [2, 5]: 112 ± 16.8 nM |
| COc1ccc(CCCNC(C)Cc2ccncc2)cc1 (centres unmarked) [Compound 172] | 42.9 mL/min/kg | 30 min | – | – | Ki [2, 5]: 186 ± 127 nM |
| CC(Cc1ccccc1)NCCCc1ccc(S)cc1 (centres unmarked) [Compound 217] | – | – | – | – | Microsomal stability assays: Clearance [3]: 170 mL/min/kg |

| SMILES | CLint scaled at 0.08 µM [1] | half-life at 0.08 µM [1] | CLint scaled at 0.08 µM [3] | half-life at 0.08 µM [3] | other results |
| --- | --- | --- | --- | --- | --- |
| CC(Cc1ccccc1)NCCCc1ccc(-c2cccs2)cc1 (centres unmarked) [Compound 206] | – | – | – | – | Ki [2, 5]: 125 ± 25.4 nM |
| CC(Cc1ccccc1)NCCCc1ccc(-c2cncnc2)cc1 (centres unmarked) [Compound 203] | – | – | 248 mL/min/kg | 12 min | – |
| CC(Cc1ccc(F)cc1)NCCCn1ccnc1 (centres unmarked) [Compound 134] | < 5.2 mL/min/kg | > 240 min | – | – | Ki [2, 5]: 517 ± 112 nM |
| CC(Cc1ccc(-c2cccnc2)cc1)NCCCc1ccc(F)cc1 (centres unmarked) [Compound 193] | 144 mL/min/kg | – | – | – | Microsomal stability assays: Half-life [1]: 6 min |
| FCC(Cc1ccc(F)cc1)NCCCc1ccc(F)cc1 (centres unmarked) [Compound 153] | 20.5 mL/min/kg | 60 min | – | – | – |
| CC(Cc1ccc(F)cc1)NCCCc1ccncc1 (centres unmarked) [Compound 177] | < 5.2 mL/min/kg | > 240 min | – | – | – |
| CC(Cc1ccncc1)NCCCc1ccc(F)cc1 (centres unmarked) [Compound 187] | – | – | 150 mL/min/kg | 18 min | – |
| CC(Cc1ccc(F)cc1)NCCCc1ccc(NC2CCC2)cc1 (centres unmarked) [Compound 93] | – | – | – | – | Ki [2, 5]: 129 ± 7.41 nM |
| CC(Cc1ccc(F)cc1)NCCCc1ccnc2ccccc12 (centres unmarked) [Compound 163] | – | – | > 400 mL/min/kg | < 6 min | – |
| FCC(Cc1ccccc1)NCCCc1ccccc1 (centres unmarked) [Compound 99] | 119 mL/min/kg | 12 min | – | – | – |
| CC(Cc1ccc(F)cc1)NCCCc1ccc(Cl)cc1 (centres unmarked) [Compound 189] | – | – | > 400 mL/min/kg | < 6 min | – |
| CC(Cc1ccc(N)cc1)NCCCc1ccccc1 (centres unmarked) [Compound 106] | – | – | 17.9 mL/min/kg | 156 min | – |
| CC(Cc1ccc(Br)cc1)NCCCc1ccc(F)cc1 (centres unmarked) [Compound 201] | < 5.2 mL/min/kg | > 240 min | – | – | – |
| CC(Cc1ccc(F)cc1)NCCCc1ccc(S(C)(=O)=O)cc1 (centres unmarked) [Compound 138] | < 5.2 mL/min/kg | > 240 min | – | – | Ki [2, 5]: 146 ± 41.9 nM |
| CC(=O)Nc1ccc(CCCNC(C)Cc2ccc(F)cc2)cc1 (centres unmarked) [Compound 67] | < 10 mL/min/kg | > 240 min | – | – | – |
| FCC(Cc1ccccc1)NCCCc1ccc(F)cc1 (centres unmarked) [Compound 102] | 33.9 mL/min/kg | 36 min | – | – | – |
| CC(Cc1ccc(-c2cncnc2)cc1)NCCCc1ccc(Cl)cc1 (centres unmarked) [Compound 171] | 75.2 mL/min/kg | 18 min | – | – | – |
| CC(Cc1ccc(Br)cc1)NCCCc1ccc(Cl)cc1 (centres unmarked) [Compound 185] | < 5.2 mL/min/kg | > 240 min | – | – | – |
| CC(Cc1ccc(F)cc1)NCCCc1ccc2[nH]ccc2c1 (centres unmarked) [Compound 56] | 106 mL/min/kg | 12 min | – | – | – |
| FCC(Cc1ccc(F)cc1)NCCCc1ccc(Cl)cc1 (centres unmarked) [Compound 151] | 22.6 mL/min/kg | 54 min | – | – | – |
| CC(Cc1ccc(Br)cc1)NCCCc1ccncc1 (centres unmarked) [Compound 175] | < 5.2 mL/min/kg | > 240 min | – | – | – |
| CC(Cc1ccc(-c2cncnc2)cc1)NCCCc1ccc(F)cc1 (centres unmarked) [Compound 197] | 40.4 mL/min/kg | 30 min | – | – | – |
| CCOC(=O)c1ccc(CCCNC(C)Cc2ccc(F)cc2)cc1 (centres unmarked) [Compound 159] | 216 mL/min/kg | – | – | – | Microsomal stability assays: Half-life [1]: 6 min |
| CC(Cc1ccc(Br)cc1)NCCCc1ccc(I)cc1 (centres unmarked) [Compound 181] | < 5.2 mL/min/kg | > 240 min | – | – | – |
